In the NIST ThermoML archive (doi:10.1016/j.jct.2013.08.011):
Numbers after ± are expanded uncertainties.

How the values were obtained:
[1] = Liquid; for Normal boiling temperature: Ebulliometric method (Recirculating still); for mass density: 293.15 K, 101.33 kPa, Vibrating tube method
[2] = refractive index (Na D-line) (dimensionless); conditions: 293.15 K; 101.33 kPa; Liquid; Standard Abbe refractometry

| Normal boiling temperature [1] | refractive index [2] | mass density [1] | SMILES |
| --- | --- | --- | --- |
| 197.48 ± 0.2 °C | 1.4324 ± 0.0007 |  | OCCO [1,2-ethanediol] |
| 97.30 ± 0.2 °C | 1.3865 ± 0.0007 | 804.1 ± 2 kg/m3 | CCCO [propan-1-ol] |
| 81.50 ± 0.2 °C | 1.3445 ± 0.0007 | 783.4 ± 2 kg/m3 | CC#N [acetonitrile] |
